Measured values reported in patent publication US11701345B2, “Car activator agents for cyclophosphamide-based treatments of cancer” (UNIVERSITY OF MARYLAND, BALTIMORE, priority 2017, dated 2023).
Entries after “also recorded” stand apart in the source; their conditions may differ.

Assays:
[1] = biological target: T1, hCAR (Homo sapiens, UniProt Q14994, INS274A); assay: hCAR-mediated CYP2B6 luciferase reporter gene activation in transfected HepG2 cells; assay type: cell-based; settings: for activation of hCAR: concentrations under 1 μm, FIGS. 3E-3J
T1 construct: expressed in transfected cells; host or cells: HepG2
T1 sequence (Q14994 with tags, fused parts or gaps isoform Q14994-2 INS270A): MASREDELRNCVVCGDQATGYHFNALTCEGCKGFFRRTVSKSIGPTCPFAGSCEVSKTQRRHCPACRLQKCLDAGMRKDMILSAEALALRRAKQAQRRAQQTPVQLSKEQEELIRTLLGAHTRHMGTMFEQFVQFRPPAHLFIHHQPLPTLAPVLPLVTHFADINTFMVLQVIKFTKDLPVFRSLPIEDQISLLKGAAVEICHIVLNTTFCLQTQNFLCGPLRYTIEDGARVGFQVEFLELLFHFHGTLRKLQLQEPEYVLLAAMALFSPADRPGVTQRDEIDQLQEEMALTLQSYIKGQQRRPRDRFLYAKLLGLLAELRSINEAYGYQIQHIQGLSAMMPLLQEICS
T1 sequence (P19793 1-462 partner): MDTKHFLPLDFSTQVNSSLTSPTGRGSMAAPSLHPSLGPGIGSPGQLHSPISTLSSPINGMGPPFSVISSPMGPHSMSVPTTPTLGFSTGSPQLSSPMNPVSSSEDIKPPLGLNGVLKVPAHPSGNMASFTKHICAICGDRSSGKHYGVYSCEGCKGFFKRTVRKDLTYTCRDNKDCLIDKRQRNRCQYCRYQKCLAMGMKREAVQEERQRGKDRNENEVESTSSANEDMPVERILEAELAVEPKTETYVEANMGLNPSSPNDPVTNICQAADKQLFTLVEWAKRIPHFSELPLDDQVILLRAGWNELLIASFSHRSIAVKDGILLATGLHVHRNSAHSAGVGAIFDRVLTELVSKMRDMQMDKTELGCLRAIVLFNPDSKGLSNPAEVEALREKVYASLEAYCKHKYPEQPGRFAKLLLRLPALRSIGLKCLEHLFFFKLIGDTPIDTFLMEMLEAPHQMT
Protocol: (§1) Using CITCO as a model compound, the biological activity of CITCO has been evaluated for its selective activation of hCAR vs. hPXR in luciferase reporter assays, and its effects on CYP2B6 expression at both mRNA and protein levels in cultured human primary hepatocytes (See FIGS. 5A-B).
HepG2 cells were transfected with hCAR1+A expression plasmid and CYP2B6-2.2k firely luciferase reporter construct. Transfected cells were treated with vehicle control (0.1% DMSO), CITCO and DL5016 at indicated concentrations for 24 h, CYP2B6 reported activities were normalized as folds over vehicle control and are expressed as means±SD (n=3). * p<0.05; ***, p<0.001. The results for the effects of DL 5016 compared with CITCO on hCAR-mediated CYP2B6 reported gene activation are shown in FIG. 2.

[2] = system: SU-DHL-4 cells; assay: Hepatocyte/lymphoma co-culture with CHOP: cancer cell death, viability, caspase-3; assay type: cell-based, human; settings: hepatocyte/lymphoma co-culture, added to CHOP, FIGS. 10B-C
Protocol: HPH were cultured in collagen-coated 12-well plates and pretreated with vehicle control (0.1% DMSO) or hCAR activator (1 mmol/L) for 24 hours. The wells were then separated with […] polycarbonate membrane inserts (Sigma-Aldrich). A total of 0.5×10^6 SU-DHL-4 cells suspended in supplemented Williams' Medium E were transferred into the insert chamber with a final volume of 2 mL/well. In separate coculture experiments, HPH were replaced with either WT or CAR-KO HepaRG cells. The cocultures were exposed to designated concentrations of the chemotherapy drugs in CHOP in the presence or absence of hCAR activator for various time intervals, as indicated.
(§2) Homogenate proteins from treated HPH, H9c2 or HepaRG cells were resolved on NuPAGE Novex Bis-Tris 4% to 12% gels (Life Technologies) and electrophoretically transferred onto immobilon-P polyvinylidene difluoride membranes. Membranes were incubated with specific antibodies against human CAR (Perseus Proteomics), cleaved caspase-3 (Cell Signaling Technology), or g-H2AX (Millipore), diluted 1:1,000, 1:1,000, and 1:400, respectively. b-Actin was used to normalize protein loading. Following incubation with horseradish peroxidase goat antimouse or anti-rabbit IgG antibody, membranes were developed using SuperSignal West Pico Chemiluminescent Substrate (Thermo Scientific). Western blot signals were quantified by densitometry using ImageJ software from the National Institutes of Health.
HPHs and H9c2 rat cardiomyocytes were seeded at 7.5×10^4 cells per well in 96-well plates. HPH were cultured for 24 hours before treatment with hCAR activator (1 mmol/L) or vehicle control (0.1% DMSO), followed by treatment with the chemotherapy drugs included in CHOP at a range of concentrations. Culture medium containing CHOP drugs and metabolites was exchanged between the cell types at pre-determined time points. A typical 3-[4,5-dimethylthiazol-2-yl]-2,5 diphenyl tetrazolium bromide (MTT) assay was carried out as described previously (21). Cell viability was expressed as the percentage of vehicle control (0.1% DMSO). Cocultured cells were assembled and treated as described above. The viability of the SU-DHL-4 cells was determined at selected time points with a Cellometer Auto T4 (Nexcelom Biosciences) using trypan blue exclusion.

[3] = Aqueous solubility; assay type: physicochemical
[4] = system: CYP2B6; assay: Induction of CYP2B6 vs CYP3A4 mRNA (RT-PCR) and protein (Western blot) in human primary hepatocytes; assay type: cell-based; settings: for hCAR activation with preferred expression of CYP2B6 protein: FIGS. 3B-3D
Protocol: HPHs were obtained from Bioreclamation, IVT. Hepatocytes with viability over 90% were seeded at 1.5×10^6 or 7.5×10^5 cells per well in 6- or 12-well collagen-coated plates. After 4 hours of attachment, cells were overlaid with Matrigel (0.25 mg/mL) in serum-free Williams E medium to form the sandwich culture. Following incubation for 36 hours, HPH were treated with DMSO (0.1%) or hCAR activator (i.e. CITCO or DL 5016) (1 mmol/L) for 24 or 72 hours for mRNA and protein detection, respectively. In separate experiments, wild-type (WT) and CAR-knockout (KO) HepaRG cells obtained from Sigma-Aldrich were cultured in 6- or 12-well collagen-coated plates. Cells were further treated with DMSO or hCAR activator.
Total RNA from HPH and lymphoma cells was isolated with TRizol Reagent (Life Technologies) and reverse transcribed using a High Capacity cDNA Archive kit (Applied Biosystems) following the manufacturers' instructions. mRNA expression of CYP2B6, CYP3A4, was normalized against that of GAPDH. Real-time PCR assays were performed in 96-well optical plates on a StepOnePlus Real-Time PCR System with SYBR Green PCR Master Mix (Applied Biosystems). The primer sequences used for real-time PCR analyses included: CYP2B6: 50-[…]-30 and 50-CCTTCACCAAGACAAATC-CGC-30; CYP3A4: 50-[…]-30 and 50[…]-30. Fold induction of genes over control was determined as 2DDCt, where DCt is representative of the cycle threshold number difference between the target gene and GAPDH and DDCt represents the relative change in the intergroup variations.
as §2
The human primary hepatocytes from human donor were treated with vehicle control (0.1% DMSO) or DL5016 at a concentration ranging from 0.1 μM to 1 μM for 24 h and 72 h. The expression mRNA for CYP2B6 and CYP3A4 and CYP2B6 and CYP3A4 protein were analyzed at the time point of 24 h and 72 h respectively.

[5] = biological target: T2, hPXR (Homo sapiens, UniProt O75469); assay: hPXR luciferase reporter assay; assay type: cell-based; settings: concentrations under 1 μm; FIGS. 3E-3J
T2 sequence (O75469 1-434): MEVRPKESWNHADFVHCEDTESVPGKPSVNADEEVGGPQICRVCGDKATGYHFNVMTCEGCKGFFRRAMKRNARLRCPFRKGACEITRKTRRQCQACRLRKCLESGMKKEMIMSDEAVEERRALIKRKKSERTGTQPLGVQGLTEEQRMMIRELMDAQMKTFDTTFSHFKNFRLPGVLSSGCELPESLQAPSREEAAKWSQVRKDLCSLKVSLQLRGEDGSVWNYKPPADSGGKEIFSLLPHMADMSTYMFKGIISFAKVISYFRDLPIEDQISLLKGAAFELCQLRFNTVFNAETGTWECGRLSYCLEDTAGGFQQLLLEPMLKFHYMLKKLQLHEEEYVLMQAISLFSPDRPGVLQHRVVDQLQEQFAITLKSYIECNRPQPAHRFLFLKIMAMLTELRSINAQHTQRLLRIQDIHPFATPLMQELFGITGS
Text: as §1

Structure (SMILES) | hCAR activation with preferred expression of CYP2B6 protein [4] | also measured
c1ccc2c(c1)CC(NCc1c(-c3ccc4ccccc4c3)nc3occn13)C2 [DL5016, N-((6-(naphthalen-2-yl)imidazo[2,1-b]oxazol-5-yl)methyl)-2,3-dihydro-1H-inden-2-amine] | – | hCAR activity (CYP2B6 reporter gene activation) compared with CITCO ([1]; HepG2 cells, hCAR1+A plasmid, CYP2B6-2.2k luciferase reporter, 24 h, FIG. 2): higher hCAR-inducing activity than CITCO; also recorded: more effective than CITCO; effect on CHOP anticancer activity (cancer cell death) [2]: potentiates the beneficial effects of CHOP in causing cancer cell death; also recorded: clearly enhanced the regimen's anticancer activity; effect on CHOP anticancer activity (cancer cell death) ([2]; listed as DL 5016): potentiate the beneficial effects of CHOP in causing cancer cell death; aqueous solubility compared with CITCO [3]: improved aqueous solubility; induction of CYP2B6 over CYP3A4 at mRNA and protein levels ([4]; human primary hepatocytes, 0.1-1 μM, 24 h (mRNA) and 72 h (protein), FIG. 3A): potent and selective induction of CYP2B6 over CYP3A4
Cl.Clc1ccc(-c2nc3sccn3c2CNCCc2ccc(Cl)c(Cl)c2)cc1 [DL4072, N-((6-(4-chlorophenyl)imidazo[2,1-b]thiazol-5-yl)methyl)-2-(3,4-dichlorophenyl)ethan-l-amine hydrochloride] | activate hCAR resulted preferred expression of CYP2B6 protein | activation of hCAR [1]: activated hCAR; activation of hPXR [5]: not hPXR
Clc1ccc(-c2nc3sccn3c2CNCCc2ccc(Br)cc2)cc1 [DL 4100, 2-(4-bromophenyl)-N-((6-(4-chlorophenyl)imidazo[2,1-b]thiazol-5-yl)methyl)ethan-1-amine] | activate hCAR resulted preferred expression of CYP2B6 protein | –
Clc1ccc(-c2nc3sccn3c2CNCCc2cccc(Br)c2)cc1 [DL4104, 2-(3-bromophenyl)-N-((6-(4-chlorophenyl)imidazo[2,1-b]thiazol-5-yl)methyl)ethan-1-amine] | activate hCAR resulted preferred expression of CYP2B6 protein | –
FC(F)(F)c1ccc(CCNCc2c(-c3ccc(Cl)cc3)nc3sccn23)cc1Cl [DL4103, 2-(3-chloro-4-(trifluoromethyl)phenyl)-N-((6-(4-chlorophenyl)imidazo[2,1-b]thiazol-5-yl)methyl)ethan-1-amine] | activate hCAR resulted preferred expression of CYP2B6 protein | –
Clc1ccc(-c2nc3sccn3c2/C=N/CCc2ccc(Cl)c(Cl)c2)cc1 [DL4059, (E)-1-(6-(4-chlorophenyl)imidazo[2,1-b]thiazol-5-yl)-N-(3,4-dichlorophenethyl)methanimine] | activate hCAR resulted preferred expression of CYP2B6 protein | activation of hCAR [1]: low activity; activation of hPXR [5]: low activity
Clc1ccc(-c2nc3sccn3c2CNCCc2ccc(Cl)c(Br)c2)cc1 [DL 4102, 2-(3-bromo-4-chlorophenyl)-N-((6-(4-chlorophenyl)imidazo[2,1-b]thiazol-5-yl)methyl)ethan-1-amine] | activate hCAR resulted preferred expression of CYP2B6 protein | –
Clc1ccc(-c2nc3sccn3c2CNCCc2cccc(Cl)c2)cc1 [DL4094, 2-(3-chlorophenyl)-N-((6-(4-chlorophenyl)imidazo[2,1-b]thiazol-5-yl)methyl)ethan-1-amine] | activate hCAR resulted preferred expression of CYP2B6 protein | –
Clc1ccc(-c2nc3sccn3c2CNCCc2ccc(Cl)c(Cl)c2)cc1 [DL4097, N-((6-(4-chlorophenyl)imidazo[2,1-b]thiazol-5-yl)methyl)-2-(3,4-dichlorophenyl)ethan-1-amine] | activate hCAR resulted preferred expression of CYP2B6 protein | –
Clc1ccc(CCNCc2c(-c3ccc(Cl)cc3)nc3sccn23)cc1 [DL4095, 2-(4-chlorophenyl)-N-((6-(4-chlorophenyl)imidazo[2,1-b]thiazol-5-yl)methyl)ethan-1-amine] | activate hCAR resulted preferred expression of CYP2B6 protein | –
